# Experimental data reported in patent US20090318568A1, “ADHERENT COATING FOR TISSUE SURFACE AND/OR TRANS-TISSUE SURFACE SUBSTANCE DELIVERY” (priority 2009, published 2009).
# Assays:
# [1] = Analysis of the paclitaxel residue dissolved in 1,2-propylene glycol; assay type: physicochemical; conditions: 100 g 1,2-propylene glycol, 135° C. for 45 min
# Experimental: The residue from filtering the glycerol solution of EXAMPLE 1 was added to 100 g of 1,2-propylene glycol, and the resulting mixture warmed to 50° C.; little of the solid material appeared to dissolve. The mixture was then placed in an oven at 135° C. and heated for 45 min.
# [2] = Analysis of the filtered paclitaxel solution in glycerol + 1,2-propylene glycol; assay type: physicochemical; conditions: 100 mg paclitaxel in 100 g USP glycerol warmed to about 50° C.
# Experimental: To this mixture, 60 g of 1,2-propylene glycol was added; the new mixture was mixed, and warmed further.
structure (smiles),measurement,setting,value
CC(=O)O[C@H]1C(=O)[C@@]2(C)[C@H]([C@H](OC(=O)c3ccccc3)[C@]3(O)C[C@H](OC(=O)[C@H](O)[C@@H](NC(=O)c4ccccc4)c4ccccc4)C(C)=C1C3(C)C)[C@]1(OC(C)=O)CO[C@@H]1C[C@@H]2O [paclitaxel],concentration in solution,[1],230 µg/mL
same,dissolution in glycerol (observation),[2],little of the paclitaxel appeared to dissolve
